The results in this text go back to article PMC11904033, “Lanatoside C activates the E3 ligase STUB1 to inhibit FOXP3 transcriptional activity and promote antitumor immunity” (EMBO Molecular Medicine, 2025).

The target in one test is T1, STUB1 (Homo sapiens, UniProt Q9UNE7).
T1 construct: full length (303 residues), HA-tagged, ectopically expressed in 293T cells, lysate
T1 sequence (Q9UNE7 1-303): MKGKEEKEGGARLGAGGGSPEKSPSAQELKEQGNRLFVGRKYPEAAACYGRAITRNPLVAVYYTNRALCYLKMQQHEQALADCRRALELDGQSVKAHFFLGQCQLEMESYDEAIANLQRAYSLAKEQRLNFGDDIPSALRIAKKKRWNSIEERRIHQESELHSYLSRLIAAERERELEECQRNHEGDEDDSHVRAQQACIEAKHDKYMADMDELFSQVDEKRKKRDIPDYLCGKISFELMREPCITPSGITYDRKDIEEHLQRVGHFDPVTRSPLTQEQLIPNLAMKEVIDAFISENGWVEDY
Description: thermal shift in […] lysate (immunoblot); DARTS. The test is classed as biochemical. The note with it: 10 uM Lac for 30 min in thermal shift; 30 uM Lac for 3 h in DARTS. (In general: In western blotting, separated proteins are transferred to a membrane and probed.)

For test [1], the target named is T2, STUB1 TPR domain (STUB1 1-130) (Homo sapiens, UniProt Q9UNE7).
T2 construct: N-terminal TPR domain, residues 1-130; ITC: His-tagged from E. coli BL21 (pET-T7-STUB1 1-130-His); thermal shift and point mutants: 1-130-3xFlag6xHis expressed in 293T cells
T2 sequence (Q9UNE7 1-130): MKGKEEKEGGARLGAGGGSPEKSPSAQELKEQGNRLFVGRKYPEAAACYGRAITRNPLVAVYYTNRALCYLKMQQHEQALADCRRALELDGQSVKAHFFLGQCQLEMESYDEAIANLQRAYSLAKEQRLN
The test is described as follows: isothermal titration calorimetry. The test is classed as binding. The note with it: read-out: Ka (converted).

Take `CC(=O)O[C@H]1C[C@H](O[C@H]2[C@@H](O)C[C@H](O[C@H]3[C@@H](O)C[C@H](O[C@H]4CC[C@@]5(C)[C@H](CC[C@@H]6[C@@H]5C[C@@H](O)[C@]5(C)[C@@H](C7=CC(=O)OC7)CC[C@]65O)C4)O[C@@H]3C)O[C@@H]2C)O[C@H](C)[C@H]1O[C@@H]1O[C@H](CO)[C@@H](O)[C@H](O)[C@H]1O` [Lanatoside C]: the thermal shift result at STUB1 is given as “Lac directly bound STUB1 as revealed in the thermal shift assay”. Besides, the Kd in test [1] was 7.69 µM.
